Laboratory results: patent US11918691B2, “Local delivery of antineoplastic particles in combination with systemic delivery of immunotherapeutic agents for the treatment of cancer” (CRITITECH, INC., priority 2017, dated 2024)

Key:
[1] = system: human renal cell adenocarcinoma (786-0 cell line); test: Rat xenograft model of human renal cell adenocarcinoma: histology and immunohistochemistry of residual tumors; assay type: in vivo, Sprague-Dawley Rag2; Il2rg null (SRG) rat
Description: Microscopic Examination: Tissues fixed with 10% NBF were embedded in paraffin. Each tumor was cut into 2-3 pieces and embedded and sectioned together.
The lymphohistiocytic infiltrate density based on assessment of […] and immunohistochemical staining with CD11b, graded semi quantitatively is shown in Table 31.
A review was conducted on the morphologic and immunohistochemical features of a subset of 14 female rats from the renal cell carcinoma study aimed to assess the efficacy of intratumoral NanoDoce® (the total study contained 30 animals). […] The NanoDoce® group was separated into three groups based on the number of administered cycles: group 1 (1 cycle; 3 animals), group 2 (2 cycles; 3 animals), and group 3 (3 cycles; 2 animals).

[2] = Rat xenograft model of human renal cell adenocarcinoma: docetaxel concentration in tumor tissue, LC-MS/MS; assay type: in vivo, Sprague-Dawley Rag2; Il2rg null (SRG) rat; settings: 38 days following the last of three weekly cycles IV (5-[…]); LOQ 1.00 ng/g
Description: A calibration curve, prepared in rat control tumor tissue homogenate, was analyzed at the beginning and the end of each analytical run. Two sets of quality control (QC) samples were prepared at four concentration levels (low, mid-1, mid-2 and high) and were used to ensure reliability of the assay.

[3] = system: human renal cell adenocarcinoma (786-0 cell line); test: Rat xenograft model of human renal cell adenocarcinoma: tumor volume, body weight, observations; assay type: in vivo, Sprague-Dawley Rag2; Il2rg null (SRG) rat; settings: IV, 3 weekly cycles
[4] = system: UM-UC-3 bladder cancer cell line (ATCC-CRL-1749) tumors; test: Human bladder cancer (UM-UC-3) mouse xenograft study: tumor volume, body weight, histology; assay type: in vivo, Hsd:Athymic Nude-Foxn1nu nude mice
Description: Tumor volume was determined with calipers. […] Animals were weighed 2×/week.
At day 18 after tumor implant, when average tumor size was between 50-325 mm^3, animals were sorted into five groups with equal average tumor sizes and were treated as shown in Table 25 below.
For IT administration (Vehicle/NANODOCE®), injections (using 27 G, ½″ needle) were administered at three sites within the tumor (total calculated injection volume based on 40 mg/mL NANODOCE® stock and 25 g mouse=63 μL; split evenly across the three injection sites) to maximize distribution of the test formulation throughout the tumor. The second treatments (2nd cycle) occurred 7 days following first treatment (1st cycle) and third treatments (3rd cycle) occurred 14 days following the first treatment. The docetaxel solution IV was administered via the tail vein.
The test formulations were prepared as follows: • Vehicle (Control): Diluted 1 ml of the 1% Polysorbate 80/8% Ethanol in normal saline (0.9% Sodium Chloride for Injection) reconstitution solution with 1.5 mL of normal saline (0.9% Sodium Chloride for Injection, USP). The final concentration of polysorbate 80 was 0.4% and the final concentration of ethanol was 3.2% in the Vehicle. • NANODOCE® Suspension: Added 1 ml of the 1% Polysorbate 80/8% Ethanol in normal saline (0.9% Sodium Chloride for Injection) reconstitution solution into the vial of NANODOCE® particles powder (100 mg/60 cc vial). The mean particle size (number) of the NANODOCE® particles powder was 1.0 micron. Vigorously hand shook the vial with inversions for 1 minute. […] Vortexed to mix.

In the case of `CC(=O)O[C@@]12CO[C@@H]1C[C@H](O)[C@@]1(C)C(=O)[C@H](O)C3=C(C)[C@@H](OC(=O)[C@H](O)[C@@H](NC(=O)OC(C)(C)C)c4ccccc4)C[C@@](O)([C@@H](OC(=O)c4ccccc4)[C@H]21)C3(C)C` [Doce], the “Number of animals with <5% of tissue showing necrosis” value ([1]; IV docetaxel, 2 animals) is reported as 2 and the “Number of animals with Mild lymphohistiocytic infiltrate density (H&E and CD11b IHC, semi quantitative)” value ([1]; IV docetaxel, 2 animals) is reported as 2.
For `CC(=O)OC12CO[C@@H]1C[C@H](O)[C@@]1(C)C(=O)[C@H](O)C3=C(C)[C@@H](OC(=O)[C@H](O)[C@@H](NC(=O)OC(C)(C)C)c4ccccc4)C[C@@](O)([C@@H](OC(=O)c4ccccc4)[C@H]21)C3(C)C` (some centres unmarked) [Docetaxel, docetaxel], the “animals evaluated with a detectable docetaxel level in tumor tissue” value [2] was “one of four”, the “docetaxel level in tumor tissue” value [2] was 21.8 ng/g and the “tumor growth compared to vehicle control” value [3] was “partial tumor growth inhibition”. For the same compound, the “histology general observations (H&E)” value ([4]; Docetaxel Solution IV 3 cycles) was “many viable appearing tumor masses with some macrophage and occasional lymphocytic response along with some tumor necrosis”, the “initial animal weight loss compared with NanoDoce IT 1, 2 and 3 cycles” value ([4]; IV 3 cycles) was “generally greater” and the “signs of peripheral neuropathy compared with NanoDoce IT 3 cycles” value ([4]; IV 3 cycles) was “greater signs of peripheral neuropathy”. The “treatment effect relative to initial tumor size” value ([4]; IV 3 cycles) was “somewhat effective at treating small tumors, but not very effective in treating large tumors”, the “tumor volumes over time” value ([4]; IV 3 cycles (weekly), 61 days) was “decreased initially for dosages of NanoDoce® IT 1 cycle and Docetaxel IV 3 cycles, but subsequently increased” and the “histology (H&E) compared with vehicle control” value ([1]; IV 3 cycles, female rat) was “no difference”. For the same compound, the “Number of animals with residual viable tumor >10 mm (maximum cross-sectional dimension of viable carcinoma on slide)” value ([1]; IV docetaxel QWX3, 2 animals evaluated) was 2, the “residual viable carcinoma nodule, maximum dimension on the slide” value ([1]; both IV docetaxel animals) was “greater than 10 mm” and the “morphologic and immunohistochemical appearance” value ([1]; two IV docetaxel cases (3 cycles)) was “identical morphologic and immunohistochemical appearance to that seen in the control and IT vehicle groups”.
